# Tested on: patient positive for anti-NR1 NMDAR antibodies
# Assay: Simpson Angus Scale for Extrapyramidal Symptoms (SAS), D-serine clinical trial
# Assay type: in vivo, human
# Conditions: week 0 score 5
# Text: Out of the seventeen patients that entered the study, the serum of one patient was strongly positive at both serum sample dilutions for the presence of both IgG and IgM classes of anti-NR1 NMDAR antibodies. The patient was a single person having a diagnosis of schizophrenia according to DSM-IV-R criteria (American Psychiatric Association, 2000 Diagnostic and Statistical Manual of Mental Disorders-(DSM-IV-TR), 4th edition. American Psychiatric Association Washington D.C. (Text Revision)). There was no history of mental disorder in the patient's family. The patient had completed post-high school studies and had worked as a secretary. After a period of continuous headaches, for which no organic basis had been found, they had abruptly developed an acute psychosis characterized by grandiose and paranoid delusions, mystical thinking, […] affect and agitation, They had been hospitalized in a psychiatric hospital and underwent treatment with antipsychotic drugs and electroconvulsive therapy with only partial response. The patient had never returned to their previous functional and except for short attempts at living in the community, has been hospitalized ever since. They have been refractory to treatment with various classes of antipsychotic drugs, was not diagnosed with any medical or neurological disorder and was maintained on sulpiride 50 mg/day, citalopram 40 mg/day, lorazepam 1 mg/day and promethazine 50 mg/day. […] DSR is a naturally occurring amino acid that acts in vivo as an obligatory co-agonist at the glycine modulatory site associated with NMDAR. […] Both acute and chronic administration of 1-2 g DSR in humans is known to result in ≥100 times increases in DSR serum levels (Kantrowitz et al., 2010, Schizophr Res121:125-30; Heresco-Levy et al., 2005, Biol Psychiatry 57:577-85). […] In conjunction with UKU ratings, patient's vital signs and body weight were monitored throughout the study.
smiles,measurement,setting,value
N[C@H](CO)C(=O)O [D-serine],SAS,study week 2,4
same,SAS,study week 4,4
same,SAS,study week 6,3

# Reference: patent publication US11213522B2, “Autoimmune-induced glutamatergic receptor dysfunction methods and treatments” (SARAH HERZOG MEMORIAL HOSPITAL EZRAT NASHIM ASSOCIATION, priority 2013, dated 2022)
